Values of other authors as cited in patent US20080200527A1, “Cannabinoid Receptor Modulators” (Carex SA, priority 2005, published 2008).

System: absorption of dietary fat
Conditions: in vivo

CCCCCCCCCCC[C@@H](C[C@@H]1OC(=O)[C@H]1CCCCCC)OC(=O)[C@H](CC(C)C)NC=O [orlistat]
block of the absorption of dietary fat: up to 30%
